{"source": "paper PMC7603008", "about": "(Materials, 2020)", "key": {"hDPCs": {"system": "hDPCs", "assay": "MTT cytotoxicity / proliferation assay", "type": "cell-based, human", "conditions": "0 to 5 days, absorbance 540 nm, three independent experiments in triplicate", "experimental": "To evaluate the effects of Cpne7-DP on hDPCs proliferation, an MTT [3-(4,5-Dimethylthiazol-2-yl)-2,5-diphenyltetrazolium bromide, a tetrazole] assay (Sigma-Aldrich, Saint Louis, MO, USA) was performed. Cells were seeded on a 96-well plate at a density of 3 × 10^3 cells/well and treated with Cpne7-DP after 24 h. Cells were cultured for up to 5 days, and MTT analyses were performed on days 0, 1, 3, and 5. After washing with phosphate-buffered saline (PBS), 20 µL of MTT was added to each well and incubated for 4 h at 37 °C. After removing the MTT solution, the converted dye was dissolved in Me2SO and measured by reading the absorbance at a wavelength of 540 nm with a microplate reader (Multiskan EX; Thermo Electron Corp., Waltham, MA, USA). Three independent experiments with triplicate samples were analyzed."}, "[1]": {"assay": "Dentinal tubule penetration by confocal laser scanning microscopy", "design": "species or system human", "conditions": "Rhodamin B-labeled Cpne7-DP 20 µg microbrushed for 1 min onto acid-etched dentin of extracted tooth, PBS wash", "experimental": "Human third molars were collected at the Seoul National University Dental Hospital (Seoul, Korea), and the experimental protocol was approved by the Institutional Review Board (IRB No: S-D20140007). Teeth were decoronated to 2–3 mm using a safe diamond disc (Isomet, Buehler Ltd., Düsseldorf, Germany) to eliminate the coronal enamel layer and expose the dentin surface. Teeth were then treated with 5 mL of 32% phosphoric acid solution for 5 min to completely open the dentinal tubules. To remove the residual smear layer, specimens were ultrasonicated in deionized water twice for 5 min each and then rinsed with PBS three times.\nCpne7-DP was tagged with Rhodamin B dye using the Rhodamine Fast Conjugation kit (ab188286, Abcam, Cambridge, MA, USA) according to the manufacturer’s instructions. Rhodamin B-labeled Cpne7-DP (20 µg) was applied to the dentin surfaces of specimens with the help of disposable microbrushes for 1 min, and then specimens were washed with PBS three times. Subsequently, the specimens were longitudinally sectioned at a thickness of 0.5 mm using a safe diamond disc. The sections were mounted onto glass slides and scanned under a confocal laser scanning microscope (LSM 700; Carl Zeiss, Jena, Germany)."}, "MDPC-23 cells": {"system": "MDPC-23 cells", "assay": "Peptide translocation and localization by immunofluorescence", "type": "cell-based, mouse", "experimental": "For peptide translocation and localization analysis, a Cy5 Fast Conjugation Kit (ab188288, Abcam, Cambridge, MA, USA) was used to tag Cpne7-DP according to the manufacturer’s instructions. MDPC-23 cells were treated with Cy5-labeled Cpne7-DP (10 µg/mL) and fixed 3 h later. Before fixing with 4% paraformaldehyde in PBS, cells in Laboratory-Tek chamber slides (Nunc, Rochester, NY, USA) were washed with PBS. Cells were then visualized using fluorescence microscopy (AX70, Olympus, Tokyo, Japan). DAPI (Sigma-Aldrich) was used to identify the chromosomal DNA in the nucleus (1:1000 dilution)."}}, "note": "Ends that are not written are not given here."}
{"sequence": "KYKQKRRSYK [Cpne7-DP]", "values": [{"measurement": "Cytotoxicity versus control (MTT)", "setting": "hDPCs", "result": "no significant difference in cytotoxicity"}, {"measurement": "Ability to permeate dentinal tubules", "setting": "[1]", "result": "flow through the entire length of the dentinal tubules into the pulp"}, {"measurement": "Internalization with chlorpromazine (clathrin-mediated endocytosis inhibitor)", "setting": "MDPC-23 cells; MDPC-23 cells pre-treated with CPZ 10 and 20 μM for 1 h, immunofluorescence", "result": "diffusely localized to the cytoplasm"}, {"measurement": "Internalization with ethylisopropyl amiloride (macropinocytosis inhibitor)", "setting": "MDPC-23 cells; MDPC-23 cells pre-treated with EIPA for 1 h, immunofluorescence", "result": "no effect on the cytoplasmic localization"}, {"measurement": "Internalization with methyl-β-cyclodextrin (caveolin-mediated endocytosis inhibitor)", "setting": "MDPC-23 cells; MDPC-23 cells pre-treated with MβCD for 1 h, immunofluorescence", "result": "diffusely localized to the cytoplasm"}, {"measurement": "Internalization in nucleolin siRNA-transfected cells", "setting": "MDPC-23 cells; MDPC-23 cells pre-treated with nucleolin siRNA for 1 h, immunofluorescence", "result": "diffusely located in the cytoplasm"}, {"measurement": "Intracellular distribution", "setting": "MDPC-23 cells; MDPC-23 cells, Cy5-labeled Cpne7-DP 10 µg/mL, fixed 3 h later, fluorescence microscopy", "result": "localized to the cytoplasm"}]}
